“And” between values parts separate entries of the source, which are not always exact repeats. Identical values can stand only once. Inconclusive results and toxic doses are left out.
Test system: L1210 leukemia ip in BDF1 mice, survival T/C
Test: NCI In Vivo Anticancer Drug Screen. Data for tumor model L1210 Leukemia (intraperitoneal) in B6D2F1 (BDF1) mice
Settings: endpoint: mean survival time, higher = longer survival
Method in brief: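 Mice bearing the transplanted tumor received compound or vehicle. Survival of the treated group was divided by that of the vehicle-treated control group to give the ratio.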

[1] = dose: 100.0 mg/kg/injection, schedule: Q04DX003 (ip), vehicle: Klucel (hydroxypropylcellulose) (HPC)
[2] = dose: 200.0 mg/kg/injection, schedule: Q04DX003 (ip), vehicle: Klucel (hydroxypropylcellulose) (HPC)
[3] = dose: 400.0 mg/kg/injection, schedule: Q04DX003 (ip), vehicle: Klucel (hydroxypropylcellulose) (HPC)
[4] = dose: 100.0 mg/kg/injection, schedule: Q01DX001 (ip), vehicle: carboxymethylcellulose (CMC)
[5] = dose: 100.0 mg/kg/injection, schedule: Q04DX002 (ip), vehicle: Klucel (hydroxypropylcellulose) (HPC)
[6] = dose: 200.0 mg/kg/injection, schedule: Q04DX002 (ip), vehicle: Klucel (hydroxypropylcellulose) (HPC)
[7] = dose: 400.0 mg/kg/injection, schedule: Q04DX002 (ip), vehicle: Klucel (hydroxypropylcellulose) (HPC)
[8] = dose: 25.0 mg/kg/injection, schedule: Q04DX003 (ip), vehicle: saline
[9] = dose: 50.0 mg/kg/injection, schedule: Q04DX003 (ip), vehicle: saline
[10] = dose: 100.0 mg/kg/injection, schedule: Q04DX003 (ip), vehicle: saline
[11] = dose: 200.0 mg/kg/injection, schedule: Q04DX003 (ip), vehicle: saline
[12] = dose: 400.0 mg/kg/injection, schedule: Q04DX003 (ip), vehicle: saline
[13] = dose: 25.0 mg/kg/injection, schedule: Q04DX002 (ip), vehicle: Klucel (hydroxypropylcellulose) (HPC)
[14] = dose: 50.0 mg/kg/injection, schedule: Q04DX002 (ip), vehicle: Klucel (hydroxypropylcellulose) (HPC)
[15] = dose: 75.0 mg/kg/injection, schedule: Q01DX001 (ip), vehicle: saline
[16] = dose: 50.0 mg/kg/injection, schedule: Q01DX009 (ip), vehicle: saline

C[Se](=O)O
T/C (dose: 3.13 mg/kg/injection, schedule: Q01DX001 (ip), vehicle: saline): 94 % of control
T/C (dose: 6.25 mg/kg/injection, schedule: Q01DX001 (ip), vehicle: saline): 91 % of control
T/C (dose: 12.5 mg/kg/injection, schedule: Q01DX001 (ip), vehicle: saline): 88 % of control

CCC1(C)CCC2(C)C(CCC3C2CCCC3(C)C(=O)O)C1 (configuration not stated)
T/C (dose: 12.5 mg/kg/injection, schedule: Q04DX002 (ip), vehicle: saline with Tween-80): 96 % of control
T/C (dose: 25.0 mg/kg/injection, schedule: Q04DX002 (ip), vehicle: saline with Tween-80): 96 % of control
T/C (dose: 50.0 mg/kg/injection, schedule: Q04DX002 (ip), vehicle: saline with Tween-80): 89 % of control

CCOC(=O)c1cnc(SC)nc1Nc1cccc(OC)c1
T/C [1]: 108 % of control
T/C [2]: 110 % of control
T/C [3]: 101 % of control

CC[Si](CC)(CC)C(C)Cl (configuration not stated)
T/C [1]: 101 % of control
T/C [2]: 101 % of control
T/C [3]: 98 % of control

NC(c1ccccc1)C1C(c2ccccc2)N1C1CCCCC1 (configuration not stated)
T/C [1]: 95 % of control
T/C [2]: 86 % of control
T/C [3]: 98 % of control

CCC(CN)(c1ccccc1)c1ccccc1
T/C (dose: 50.0 mg/kg/injection, schedule: Q01DX001 (ip), vehicle: other): 96 % of control
T/C (dose: 100.0 mg/kg/injection, schedule: Q01DX001 (ip), vehicle: other): 104 % of control
T/C (dose: 200.0 mg/kg/injection, schedule: Q01DX001 (ip), vehicle: other): 102 % of control
T/C (dose: 400.0 mg/kg/injection, schedule: Q01DX001 (ip), vehicle: other): 96 % of control

CCCCCCCC/C=C\CCCCCCCC(=O)OCCCCCCCCCCC
T/C (dose: 100.0 mg/kg/injection, schedule: Q01DX009 (ip), vehicle: other): 93 % of control
T/C (dose: 200.0 mg/kg/injection, schedule: Q01DX009 (ip), vehicle: other): 94 % of control
T/C (dose: 400.0 mg/kg/injection, schedule: Q01DX009 (ip), vehicle: other): 100 % of control

CCOc1cccc2c1OC(CN1CCC3(CC1)C(=O)NCN3c1ccccc1)CO2 (configuration not stated)
T/C [1]: 116 % of control
T/C [2]: 115 % of control
T/C [3]: 115 % of control

CN(Cc1cnc2nc(N)nc(N)c2n1)c1ccc(C(=O)NC(CCC(=O)OC(C)(C)C)C(=O)OC(C)(C)C)cc1 (configuration not stated)
T/C (dose: 25.0 mg/kg/injection, schedule: Q01DX009 (ip), vehicle: Klucel (hydroxypropylcellulose) (HPC)): 124 % of control
T/C (dose: 50.0 mg/kg/injection, schedule: Q01DX009 (ip), vehicle: Klucel (hydroxypropylcellulose) (HPC)): 88 % of control
T/C [1]: 159 % of control

COc1ccc(C(=NN=C(N)N)c2ccc(OC)cc2)cc1
T/C (dose: 15.0 mg/kg/injection, schedule: Q01DX Z (ip), vehicle: saline): 96 % of control
T/C (dose: 30.0 mg/kg/injection, schedule: Q01DX Z (ip), vehicle: saline): 100 % of control
T/C (dose: 30.0 mg/kg/injection, schedule: Q01DX Z (oral), vehicle: saline): 105 % of control
T/C (dose: 60.0 mg/kg/injection, schedule: Q01DX Z (ip), vehicle: saline): 96 % of control
T/C (dose: 60.0 mg/kg/injection, schedule: Q01DX Z (oral), vehicle: saline): 97 % of control
T/C (dose: 120.0 mg/kg/injection, schedule: Q01DX Z (oral), vehicle: saline): 105 % of control
T/C (dose: 240.0 mg/kg/injection, schedule: Q01DX Z (oral), vehicle: saline): 92 % of control
T/C (dose: 480.0 mg/kg/injection, schedule: Q01DX Z (oral), vehicle: saline): 94 % of control

O=C(c1ccccc1)C(c1ccccc1)(c1ccccc1)c1ccccc1
T/C (dose: 50.0 mg/kg/injection, schedule: Q01DX001 (ip), vehicle: carboxymethylcellulose (CMC)): 90 % of control
T/C [4]: 95 % of control
T/C [5]: 97 % of control
T/C (dose: 200.0 mg/kg/injection, schedule: Q01DX001 (ip), vehicle: carboxymethylcellulose (CMC)): 108 % of control
T/C [6]: 94 % of control
T/C (dose: 400.0 mg/kg/injection, schedule: Q01DX001 (ip), vehicle: carboxymethylcellulose (CMC)): 123 % of control
T/C [7]: 97 % of control

NC(=O)Nc1ccc(Br)cc1Br
T/C [5]: 102 % of control
T/C [6]: 94 % of control

CC(C)NC(=O)c1ccc(CNN(C)C)cc1
T/C [8]: 114 % of control
T/C [9]: 104 % of control
T/C [10]: 112 % of control
T/C [11]: 104 % of control
T/C [12]: 111 % of control

O=C1Nc2ccccc2/C1=C/c1cccnc1
T/C (dose: 50.0 mg/kg/injection, schedule: Q01DX Z (ip), vehicle: carboxymethylcellulose (CMC)): 97 % of control
T/C (dose: 100.0 mg/kg/injection, schedule: Q01DX Z (ip), vehicle: carboxymethylcellulose (CMC)): 111 % of control
T/C (dose: 200.0 mg/kg/injection, schedule: Q01DX Z (ip), vehicle: carboxymethylcellulose (CMC)): 94 % of control
T/C (dose: 400.0 mg/kg/injection, schedule: Q01DX Z (ip), vehicle: carboxymethylcellulose (CMC)): 95 % of control

CSC(=NCc1ccccc1)NC1CCCCC1
T/C (dose: 12.5 mg/kg/injection, schedule: Q04DX002 (ip), vehicle: Klucel (hydroxypropylcellulose) (HPC)): 100 % of control
T/C [13]: 107 % of control
T/C [14]: 107 % of control

C[N+]1(C2CC3CCC2C3=O)CCOCC1 (configuration not stated)
T/C [15]: 97 % of control
T/C (dose: 150.0 mg/kg/injection, schedule: Q01DX001 (ip), vehicle: saline): 98 % of control

COC(=O)Cc1cc(=O)c2ccccc2[nH]1
T/C [16]: 94 % of control
T/C (dose: 100.0 mg/kg/injection, schedule: Q01DX009 (ip), vehicle: saline): 103 % of control
T/C [10]: 96 % of control
T/C (dose: 200.0 mg/kg/injection, schedule: Q01DX009 (ip), vehicle: saline): 93 % of control
T/C [11]: 96 % of control
T/C [12]: 91 % of control

CCCCCCCCCCCCCCCCCCNC(=O)c1c(Br)c(Br)cc(Br)c1C(=O)O
T/C [13]: 104 % of control
T/C [14]: 93 % of control
T/C [5]: 96 % of control
T/C [6]: 98 % of control and 87 % of control
T/C [7]: 90 % of control

CC(c1c[nH]c2ccccc12)N1CCCCC1 (configuration not stated)
T/C (dose: 12.5 mg/kg/injection, schedule: Q01DX009 (ip), vehicle: saline): 115 % of control
T/C (dose: 25.0 mg/kg/injection, schedule: Q01DX009 (ip), vehicle: saline): 107 % of control
T/C (dose: 25.0 mg/kg/injection, schedule: Q04DX003 (ip), vehicle: acetone): 103 % of control
T/C [16]: 109 % of control
T/C (dose: 50.0 mg/kg/injection, schedule: Q04DX003 (ip), vehicle: acetone): 95 % of control
T/C [4]: 96 % of control

COc1ccc(NC(=O)C2C3C=CC(C3)C2C(=O)Nc2ccc(OC)cc2)cc1 (configuration not stated)
T/C (dose: 100.0 mg/kg/injection, schedule: Q04DX003 (ip), vehicle: saline with Tween-80): 100 % of control
T/C (dose: 200.0 mg/kg/injection, schedule: Q04DX003 (ip), vehicle: saline with Tween-80): 87 % of control
T/C (dose: 400.0 mg/kg/injection, schedule: Q04DX003 (ip), vehicle: saline with Tween-80): 91 % of control

COc1ccc(Cl)cc1C/C=N/NC(=O)C[N+](C)(C)C
T/C [15]: 92 % of control

Cc1cc(N(CCOS(C)(=O)=O)CCOS(C)(=O)=O)ccc1C=Nc1ccc(-c2nc(Cc3ccccc3)sc2C)cc1
T/C (dose: 12.5 mg/kg/injection, schedule: Q01DX009 (ip), vehicle: Klucel (hydroxypropylcellulose) (HPC)): 115 % of control
T/C (dose: 66.0 mg/kg/injection, schedule: Q04DX003 (ip), vehicle: Klucel (hydroxypropylcellulose) (HPC)): 115 % of control

O=C(C[n+]1cccc(CO)c1)c1ccccc1
T/C (dose: 12.5 mg/kg/injection, schedule: Q04DX003 (ip), vehicle: saline): 102 % of control
T/C [8]: 103 % of control
T/C [9]: 100 % of control

Cc1csc(C)n1.Cc1csc(C)n1.Cc1csc(C)n1.Cc1csc(C)n1.[Cl][Rh][Cl]
T/C (dose: 3.13 mg/kg/injection, schedule: Q04DX003 (ip), vehicle: distilled water + Tween-80): 105 % of control
T/C (dose: 6.25 mg/kg/injection, schedule: Q04DX003 (ip), vehicle: distilled water + Tween-80): 102 % of control
T/C (dose: 12.5 mg/kg/injection, schedule: Q04DX003 (ip), vehicle: distilled water + Tween-80): 100 % of control
T/C (dose: 25.0 mg/kg/injection, schedule: Q04DX003 (ip), vehicle: distilled water + Tween-80): 110 % of control

CCCCCCC/C=C/c1c(C)[nH]c2ccccc2c1=O
T/C [1]: 96 % of control
T/C [2]: 93 % of control
T/C [3]: 89 % of control

Source: PubChem BioAssay AID248 (DTP/NCI, 2004)
